“Also recorded” adds a separate entry of the source.
What was measured:
[1] = 12 months, Aisen et al. 2003; cited from earlier work
[2] = 12 months, Aisen et al. 2003; cited from earlier work; remark: listed apart in the source
[3] = test system: mice lacking one or both murine MTHFR alleles; details: SAM supplementation; Chan et al. (2007) in press; cited from earlier work
[4] = test system: gamma secretase; assay: Gamma secretase activity in brain homogenates (fluorescent kit); assay type: in vivo, mouse
Method: (§1) Adult (9-12 months of age) C57B/6 mice that either express (“normal”) or lack murine ApoE (ApoE−/− mice) received a diet (“AIN-76”; Purina/Mother Hubbard, Inc.) either lacking folate and vitamin E (defined as the “deficient diet”) or supplemented with folic acid (4 mg/kg), and vitamin E (50 IU/kg total diet wet weight) (defined as the “complete diet”). The deficient diet was also supplemented in all cases with iron ([…] total diet) as a pro-oxidant (Mihalick et al., (2004) Neuromol. Med. 4:197-202; Shea and Rogers, (2002) Mol. Brain. Res. 108:1-6). Additional groups of mice maintained on each diet received SAM for the entire month (100 mg/kg diet; Chan et al., (2007) in press; Tchantchou et al., (2005) J. Alzheimers Dis. 7:135-138). Following 1 month of maintenance on these diets, mice were sacrificed by cervical dislocation, and the frontal portion of the brain (encompassing cortex and hippocampus) was immediately removed.
Gamma secretase activity was quantified by fluorescent spectroscopy using a gamma secretase activity kit according to the manufacturer's instructions (R&D Systems, Minneapolis, MN), using the APP peptide GVVIATVIV (SEQ ID NO: 5) conjugated to the reporter molecules EDANS and DABCYL and measuring the cleavage-dependent release of signal at 495 nm.

[5] = test system: normal C57B/6 mice; details: SAM administered in isolation; prior studies (Chan et al. 2007); cited from earlier work
[6] = test system: presenilin-1 (PS-1) expression; assay: PS-1 expression by RT-PCR in murine brain; assay type: in vivo, mouse; details: normal and ApoE−/− mice, deficient diet + SAM 100 mg/kg diet, 1 month
Method: Adult (9-12 months of age) C57B/6 mice that either express (“normal”) or lack murine ApoE (ApoE−/− mice) received a diet (“AIN-76”; Purina/Mother Hubbard, Inc.) either lacking folate and vitamin E (defined as the “deficient diet”) or supplemented with folic acid (4 mg/kg), and vitamin E (50 IU/kg total diet wet weight) (defined as the “complete diet”). The deficient diet was also supplemented in all cases with iron ([…] total diet) as a pro-oxidant (Mihalick et al., (2004) Neuromol. Med. 4:197-202; Shea and Rogers, (2002) Mol. Brain. Res. 108:1-6). Additional groups of mice maintained on each diet received SAM for the entire month (100 mg/kg diet; Chan et al., (2007) in press; Tchantchou et al., (2005) J. Alzheimers Dis. 7:135-138). […]
To analyze PS-1 expression, total mRNA was extracted from the above homogenate using an RNA isolation kit and stored at −20° C. as described (Chan and Shea, (2006) J. Alzheimers Dis. 9:399-405). Transcription of murine PS-1 was analyzed using a set of primers 5′-[…]-3′ (SEQ ID NO: 1) and 5′-[…]-3′ (SEQ ID NO: 2) respectively, which yielded a product of 557 base pairs (bp) of the murine PS-1 gene. […] Gels were visualized under UV using a Gel Doc 2000 machine from BioRad and analyzed using Quantity One software. […]

[7] = test system: Abeta; assay: Abeta levels in murine brain by immunoblot; assay type: in vivo, mouse; details: normal and ApoE−/− mice
Method: as §1
A portion (40-50 mg) of the above cortical/hippocampal sample was homogenized with 4 volumes of Tris-saline (50 mM Tris HCl, pH 7.4, 150 mM NaCl containing 1 mM EGTA, 0.5 mM diisopropyl fluorophosphate, 0.5 mM phenylmethylsulfonyl fluoride, 1 μg/ml N-p-tosyl-L-lysine chloromethylketone, 0.1 μg/ml pepstatin, 1 μg/ml antipain, and 1 μg/ml leupeptin). The homogenate was centrifuged at […] for 50 minutes at 4° C. […]

[8] = normal mice, deficient diet + SAM

SMILES	decline in ADCS-ADL [1]	performance on the NPI [2]	cognitive performance [3]	effect on gamma-secretase activity ([4]; ApoE−/− mice, SAM supplementation, FIG. 22)	gamma-secretase activity, less than levels on complete diet ([4]; ApoE−/− mice, deficient diet + SAM)	effect on deficient-diet-induced increase in gamma-secretase activity [4, 8]	gamma-secretase activity relative to complete diet [4, 8]	performance of normal mice [5]	effect on deficient-diet-induced increase in PS-1 expression [6]	effect on folate-deprivation-induced increase in Abeta levels ([7]; folate-deficient diet + SAM)	Abeta levels, SAM in the presence of folate ([7]; folate-supplemented diet + SAM)
CS(=O)(=O)c1ccc(C2=C(c3ccccc3)C(=O)OC2)cc1 [rofecoxib]	nor prevented decline in ADCS-ADL	Neither naproxen nor rofecoxib statistically improved performance on the NPI	–	–	–	–	–	–	–	–	–
C[S+](CC[C@H](N)C(=O)O)C[C@H]1O[C@@H](n2cnc3c(N)ncnc32)[C@H](O)[C@@H]1O (stereo partly shown) [SAM, S-adenosyl methionine]	–	–	improved cognitive performance	statistically (p<0.02) reduced secretase activity	approx. 40%	attenuated by half; also recorded: reduced secretase activity in normal mice (not statistically significant)	approx. 35%	did not improve the performance of normal mice	prevented these increases; also recorded: prevented or attenuated these increases	prevented these increases; also recorded: alleviated these increases	did not alter values obtained with folate alone
COc1ccc2cc([C@H](C)C(=O)O)ccc2c1 [naproxen]	nor prevented decline in ADCS-ADL	Neither naproxen nor rofecoxib statistically improved performance on the NPI	–	–	–	–	–	–	–	–	–

From patent US8597640B2, “Over-the-counter vitamin/nutriceutical formulation that provides neuroprotection and maintains or improves cognitive performance in alzheimer's disease and normal aging” (University of Massachusetts Lowell, priority 2007, dated 2013)
